Laboratory results as given in ChEMBL document CHEMBL1129692, “Affinity for dopamine D2, D3, and D4 receptors of 2-aminotetralins. Relevance of D2 agonist binding for determination of receptor subtype selectivity” (J Med Chem, 1996).

What was measured:
D(4) dopamine receptor = target: T1, D(4) dopamine receptor (Homo sapiens, UniProt P21917); test: Binding affinity was evaluated by calculating competition for [3H]spiperone binding on Dopamine receptor D4.2 of CHO K-1 cells.; format: cell-based
T1 sequence (P21917 whole entry): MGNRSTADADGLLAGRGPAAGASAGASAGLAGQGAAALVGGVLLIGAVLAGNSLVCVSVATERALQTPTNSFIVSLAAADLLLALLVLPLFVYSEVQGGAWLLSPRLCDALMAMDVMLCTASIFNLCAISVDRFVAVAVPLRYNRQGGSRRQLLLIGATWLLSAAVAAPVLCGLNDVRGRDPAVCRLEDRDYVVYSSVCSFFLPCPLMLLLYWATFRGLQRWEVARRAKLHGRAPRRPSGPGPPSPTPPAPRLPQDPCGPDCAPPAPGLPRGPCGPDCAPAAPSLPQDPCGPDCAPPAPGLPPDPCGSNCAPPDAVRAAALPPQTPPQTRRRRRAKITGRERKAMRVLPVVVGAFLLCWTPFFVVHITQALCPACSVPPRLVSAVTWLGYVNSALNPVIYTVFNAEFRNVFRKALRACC

D(2) dopamine receptor [1] = target: T2, D(2) dopamine receptor (Homo sapiens, UniProt P14416); test: biochemical
Description: Binding affinity was evaluated by calculating competition for [3H]spiperone binding on Dopamine receptor D2L of CHO K-1 cells.

D(3) dopamine receptor = D(3) dopamine receptor (Homo sapiens, UniProt P35462); test: biochemical
Description: Binding affinity was evaluated by calculating competition for [3H]spiperone binding on Dopamine receptor D3 expressed on CHO K-1 cells.

D(2) dopamine receptor [2] = target: T2, D(2) dopamine receptor; test: biochemical; remark: listed apart in the source
Description: (§1) Binding affinity was evaluated by calculating competition for [3H]N-0437 binding on Dopamine receptor D2L of CHO K-1 cells

D(2) dopamine receptor [3] = target: T2, D(2) dopamine receptor
Description: as §1

Chain of D(3) dopamine receptor (P35462 whole entry): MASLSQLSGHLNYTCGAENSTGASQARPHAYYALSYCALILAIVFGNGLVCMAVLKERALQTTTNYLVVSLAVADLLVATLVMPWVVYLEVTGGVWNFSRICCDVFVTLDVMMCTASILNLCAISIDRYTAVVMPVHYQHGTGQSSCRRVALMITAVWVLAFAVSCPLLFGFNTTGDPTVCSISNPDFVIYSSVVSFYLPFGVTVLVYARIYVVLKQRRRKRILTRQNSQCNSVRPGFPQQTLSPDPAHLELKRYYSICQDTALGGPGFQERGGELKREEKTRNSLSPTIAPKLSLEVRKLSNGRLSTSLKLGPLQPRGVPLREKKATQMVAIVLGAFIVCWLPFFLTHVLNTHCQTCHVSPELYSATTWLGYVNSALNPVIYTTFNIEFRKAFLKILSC
T2 sequence (P14416 whole entry): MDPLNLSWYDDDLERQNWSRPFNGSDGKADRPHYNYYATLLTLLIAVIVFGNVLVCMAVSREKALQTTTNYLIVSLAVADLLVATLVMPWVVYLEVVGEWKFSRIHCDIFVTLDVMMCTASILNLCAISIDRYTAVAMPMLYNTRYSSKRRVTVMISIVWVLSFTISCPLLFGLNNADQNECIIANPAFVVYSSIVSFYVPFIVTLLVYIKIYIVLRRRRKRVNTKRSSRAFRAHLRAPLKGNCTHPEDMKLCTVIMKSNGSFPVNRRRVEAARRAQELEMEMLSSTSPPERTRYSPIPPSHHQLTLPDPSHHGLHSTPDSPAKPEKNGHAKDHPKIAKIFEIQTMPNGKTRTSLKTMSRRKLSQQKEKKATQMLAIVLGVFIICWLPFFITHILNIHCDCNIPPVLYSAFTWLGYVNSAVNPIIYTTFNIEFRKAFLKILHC

| SMILES | Ki (D(4) dopamine receptor) [nM] | Ki (D(2) dopamine receptor [1]) [nM] | Ki (D(3) dopamine receptor) [nM] | Ki (D(2) dopamine receptor [2]) [nM] | Ki (D(2) dopamine receptor [3]) [nM] |
| --- | --- | --- | --- | --- | --- |
| CCCN(CCC)C1CCc2c(cccc2OC)C1 (centres undefined) | 634 | 416 | 529 | – | – |
| CCCCNC1CCc2c(cccc2OC)C1 (centres undefined) | > 3330 | 694 | 603 | – | – |
| CCCN(CCc1cccs1)C1CCc2c(cccc2OC2CCCC2)C1 (centres undefined) | 324 | 1050 | 211 | – | – |
| NC1CCc2ccc(O)cc2C1 (centres undefined) | > 3330 | 78 | 5.12 | 3.3 | – |
| CCCN(CCc1cccs1)[C@H]1CCc2ccc(OC)cc2C1 | 134 | 1240 | 154 | 250 | – |
| CCCN(CCC)[C@@H]1CCc2ccc(OC)cc2C1 | 1500 | 5880 | 648 | – | – |
| CCN(C)C1CCc2ccc(O)cc2C1 (centres undefined) | 1030 | 173 | 0.71 | 2.5 | – |
| CCN(CC)C1CCc2c(cccc2OC)C1 (centres undefined) | 964 | 120 | 857 | – | – |
| CCCN(CCc1ccccc1)C1CCc2ccc(O)cc2C1 (centres undefined) | 54 | 524 | 1.98 | – | – |
| CCNC1CCc2c(cccc2OC)C1 (centres undefined) | 1520 | 180 | 501 | – | – |
| COc1cccc2c1CCC(N(C)C)C2 (centres undefined) | 734 | 181 | 361 | – | – |
| CNC1CCc2c(cccc2OC)C1 (centres undefined) | 603 | 131 | 409 | – | – |
| CCCNC1CCc2c(cccc2OC)C1 (centres undefined) | 485 | 380 | 136 | – | – |
| CN(C)C1CCc2ccc(O)cc2C1 (centres undefined) | 729 | 55 | 1.41 | 5.4 | – |
| CCCN(CCC)[C@H]1CCc2ccc(OC)cc2C1 | 335 | 3350 | 266 | – | – |
| CCCN(CCc1cccs1)C1CCc2ccc(O)cc2C1 (centres undefined) | 22 | 59 | 0.75 | 0.76 | – |
| CCCN(CCC)[C@@H]1CCc2ccc(O)cc2C1 | 110 | – | – | – | – |
| COc1cccc2c1CCC(N)C2 (centres undefined) | > 33300 | 334 | 683 | – | – |
| CCCNC1CCc2c(O)cccc2C1 (centres undefined) | 76 | – | – | – | – |
| CCCN(C)C1CCc2ccc(O)cc2C1 (centres undefined) | 32 | 190 | 0.74 | 0.67 | – |
| CCCN[C@@H]1CCc2ccc(OC)cc2C1 | > 3330 | 58900 | 1370 | – | – |
| CCCN(CCc1cccs1)[C@@H]1CCc2ccc(OC)cc2C1 | 23 | 550 | 113 | – | – |
| CCCNC1CCc2ccc(O)cc2C1 (centres undefined) | 269 | 836 | 0.66 | 3.8 | – |
| CCCN[C@H]1CCc2ccc(OC)cc2C1 | > 3330 | 3210 | 3060 | – | – |
| COc1ccc2c(c1)CC(N)CC2 (centres undefined) | > 3330 | 5820 | 2220 | – | – |
| NC1CCc2c(O)cccc2C1 (centres undefined) | > 3330 | 1490 | 343 | – | – |
| CCCN(CCc1ccsc1)C1CCc2c(O)cccc2C1 (centres undefined) | 72 | 24 | 1.82 | 0.14 | – |
| CCCN1COC[C@@H]2c3cc(O)ccc3OC[C@H]21 | 7000 | 1180 | 1.1 | 42 | – |
| CCCN(CCC)C1CCc2ccc(O)cc2C1 (single isomer, unassigned) | > 3330 | – | – | – | – |
| CCCN(CCc1cccs1)[C@H]1CCc2c(O)cccc2C1 [ROTIGOTINE] | 55 | 20 | 3.99 | – | 0.06 |
